Consider five molecules from paper PMC11830721 (Frontiers in Pharmacology, 2025).

Broadly, the IC50 is the concentration needed to halve the response being measured. Lower therefore signals greater potency. By Kd is commonly meant the concentration at which binding is half-saturated. Read a high Kd as weaker binding.

Assay [1] deals with T1, FLT3-ITD (Homo sapiens, UniProt P36888, ITD).
T1 sequence (P36888 27-993): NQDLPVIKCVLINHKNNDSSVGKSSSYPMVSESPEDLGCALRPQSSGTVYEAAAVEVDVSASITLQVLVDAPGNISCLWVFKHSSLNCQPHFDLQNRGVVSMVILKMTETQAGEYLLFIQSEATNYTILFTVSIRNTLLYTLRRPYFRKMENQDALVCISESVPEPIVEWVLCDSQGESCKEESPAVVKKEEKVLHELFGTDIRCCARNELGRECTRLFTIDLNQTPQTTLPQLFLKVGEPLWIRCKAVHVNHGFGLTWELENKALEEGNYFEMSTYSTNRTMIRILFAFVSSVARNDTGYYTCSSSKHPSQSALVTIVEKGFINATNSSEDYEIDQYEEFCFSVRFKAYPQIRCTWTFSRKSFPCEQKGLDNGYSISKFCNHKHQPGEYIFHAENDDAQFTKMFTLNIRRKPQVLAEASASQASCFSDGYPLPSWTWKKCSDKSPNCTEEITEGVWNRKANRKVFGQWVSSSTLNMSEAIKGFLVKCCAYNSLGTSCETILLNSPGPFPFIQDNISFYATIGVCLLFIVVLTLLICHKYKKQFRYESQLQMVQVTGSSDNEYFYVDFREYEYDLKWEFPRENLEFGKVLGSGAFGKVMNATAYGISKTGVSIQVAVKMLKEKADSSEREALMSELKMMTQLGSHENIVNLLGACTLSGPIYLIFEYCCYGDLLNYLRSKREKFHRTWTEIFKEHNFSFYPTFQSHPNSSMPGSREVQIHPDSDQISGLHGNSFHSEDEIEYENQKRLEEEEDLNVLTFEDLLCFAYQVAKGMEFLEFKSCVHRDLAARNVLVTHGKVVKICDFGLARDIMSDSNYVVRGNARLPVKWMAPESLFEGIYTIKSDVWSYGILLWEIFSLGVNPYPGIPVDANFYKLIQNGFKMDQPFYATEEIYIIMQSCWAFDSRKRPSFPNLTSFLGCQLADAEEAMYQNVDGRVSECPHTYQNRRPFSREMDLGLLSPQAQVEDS
As to the kind of experiment: ADP-Glo kinase-inhibition assay. The settings on record: ADP-Glo; ATP 100 μM; FLT3-ITD 10 ng/μL. It is filed as biochemical. How it is done: Subsequently, the kinase detection reagent was added and incubated for an additional 15 min. Finally, the mixture was incubated for 1 h, and relative luminescence units (RLU) were measured.
Moreover, we extended the kinase selectivity profiling of FLIN-4 to evaluate its inhibitory activity against 60 non-target kinases.
In general terms: In ADP-Glo the light output rises with the ADP produced.

The next assay deals with MV4-11 cells. The experiment in a line: MTT anti-proliferation assay, MV4-11. The class given is cell-based. The settings on record: Homo sapiens, 72-h treatment. How it is done: In addition, the normal hematopoietic cell line was COLO 829BL from ATCC. The cells were maintained in RPMI-1640 medium supplemented with 10% FBS, and 1% penicillin and streptomycin. The cells were cultured in an incubator at 37°C with 5% CO2. […] The high-performance liquid chromatography (HPLC) spectra data for each compound are provided in the (Supplementary Figures S1–S6).
The effects of the test compounds on MV4-11, NB4, and COLO 829BL cell lines were quantitatively evaluated according to the methods previously reported ([Zhou et al., 2022]).
On the technique in general: Tetrazolium assays rely on reduction of a dye to a coloured formazan, in cell work by metabolically active cells.

Assay [2] deals with T1, FLT3-ITD. As to the kind of experiment: Microscale thermophoresis (MST) binding affinity. The settings on record: 50 mM Tris, 230 mM NaCl, pH 7.0, labeled protein 50 nM. The method, then:
The protein was labeled with a fluorescence tag utilizing a Lys Labeling Kit (NanoTemper), with a final concentration of 50 nM being achieved. Adhering to the manufacturer’s guidelines, the compounds were titrated from an initial concentration of 12.5 μM with a 1:1 dilution ratio. Next, each sample was centrifuged at 15,000 rpm for 5 min, followed by loading into standard glass capillaries for MST analysis.

Regarding `CCCNC1CCN(c2ccc(Nc3nc(NC4CCOC(C(O)CO)C4)c(CC)nc3C(N)=O)cc2OC)CC1` (stereo not drawn) [FLIN-5], the results for the IC50 at FLT3-ITD [1] and in the assay with MV4-11 cells were 14.5 ± 0.98 nM and 17.7 ± 1.03 nM, respectively. At FLT3-ITD [2], the Kd amounted to 12.5 ± 1.05 nM.

On to `CCc1nc(C(N)=O)c(Nc2ccc(N3CCC(NC4CCCC4)CC3)c(OC)c2)nc1NC1CCOC(C(O)CO)C1` (stereo not drawn) [FLIN-2], for which the IC50 against FLT3-ITD [1] was determined as 4.98 ± 0.35 nM; in the assay with MV4-11 cells, 5.54 ± 0.41 nM. At FLT3-ITD [2], this molecule came in with a Kd of 3.62 ± 0.41 nM.

Take `CCc1nc(C(N)=O)c(Nc2ccc(N3CCC(NC4CC4)CC3)c(OC)c2)nc1NC1CCOC(C(O)CO)C1` (stereo not drawn) [FLIN-1]: the IC50 worked out at 10.2 ± 0.81 nM against FLT3-ITD [1] and 12.2 ± 0.94 nM in the assay with MV4-11 cells. In addition, the Kd on FLT3-ITD [2] turned out to be 8.74 ± 0.52 nM.

`CCc1nc(C(N)=O)c(Nc2ccc(N3CCC(NC4CCCCC4)CC3)c(OC)c2)nc1NC1CCOC(C(O)CO)C1` (stereo not drawn) [FLIN-3]: the IC50 came to 2.85 ± 0.22 nM against FLT3-ITD [1] and 3.03 ± 0.27 nM in the assay on MV4-11 cells. The molecule further came in with a Kd on FLT3-ITD [2] of 2.19 ± 0.33 nM.

For `CCc1nc(C(N)=O)c(Nc2ccc(N3CCC(NC(CC)CC)CC3)c(OC)c2)nc1NC1CCOC(C(O)CO)C1` (stereo not drawn) [FLIN-6], the results for the IC50 at FLT3-ITD [1] and in the assay with MV4-11 cells were 6.39 ± 0.47 nM and 8.28 ± 0.54 nM, respectively. On FLT3-ITD [2], this molecule displayed a Kd of 5.26 ± 0.42 nM.
